Where two headings read alike, the source gives them in different places. No end group written: not given here.
Key:
E. faecium strain C68 [1] = test: microbe, parasite or virus in culture; type: cell-based, Enterococcus faecium; settings: for MIC EF C68 / MIC Media Only: strain C68, 18 h; for MIC: Enterococcus faecium
Procedure: (§1) To determine the MICs of peptides, we used the broth microdilution method described by the Clinical and Laboratory Standards Institute. We made serial dilutions of 10× concentration (10 µL) for each peptide in duplicates in 96-well plates (Cat No. 3595, Corning, New York, NY, USA). We added 90 µL of logarithmic-phase bacteria at 5 × 10^5 CFU/mL (in BHI media) to the peptides and then incubated the plates at 37 °C for 18 h. We measured the OD600 absorbance readings using the Spectra Max i3x spectrophotometer (Molecular Devices, San Jose, CA, USA) and determined the MIC as the peptide concentration that inhibits the growth of bacteria.

E. faecium strain C68 [2] = test: microbe, parasite or virus in culture; type: cell-based, Enterococcus faecium; settings: for MIC + CaCl2 (2.5 mM) / MIC + MgSO4 (1 mM) / MIC + NaCl (150 mM) / MIC + ZnSO4 (8 µM): strain C68, 18 h; for MIC: Enterococcus faecium, C68
Procedure: as §1
To investigate the activity of peptides in various salt concentrations, we included physiologically relevant salts in the BHI medium.

S. aureus MW2 = test: microbe, parasite or virus in culture; type: cell-based, Staphylococcus aureus; settings: MW2, 18 h
Procedure: as §1

E. faecalis MMH594 = test: microbe, parasite or virus in culture; type: cell-based; settings: MMH594, 18 h
Procedure: as §1

E. faecalis V583 = test: microbe, parasite or virus in culture; type: cell-based; settings: V583, 18 h
Procedure: as §1

E. faecalis OG1RF = test: MIC assay, E. faecalis OG1RF; type: cell-based; settings: rifampin and fusidic acid resistant
Procedure: as §1

[3] = HPLC retention time on C18 reverse-phase column; type: physicochemical
Excerpt: Table 1 Physical parameters and the minimal inhibitory concentration (µg/mL) of designed peptides against E. faecium. | column: rT ^f (min)

E. faecium D14 = test: microbe, parasite or virus in culture; type: cell-based, Enterococcus faecium; settings: for MIC D14: D14, 18 h
Procedure: as §1

E. faecium D24 = test: microbe, parasite or virus in culture; type: cell-based, Enterococcus faecium; settings: for MIC D24: D24, 18 h
Procedure: as §1

E. faecium D25 = test: microbe, parasite or virus in culture; type: cell-based, Enterococcus faecium; settings: for MIC D25: D25, 18 h
Procedure: as §1

E. faecium D29 = test: microbe, parasite or virus in culture; type: cell-based, Enterococcus faecium; settings: for MIC D29: D29, 18 h
Procedure: as §1

E. faecium E007 = test: microbe, parasite or virus in culture; type: cell-based, Enterococcus faecium; settings: for MIC E007: E007, 18 h
Procedure: as §1

E. faecium WC176 = test: organism not typed; type: cell-based, Enterococcus faecium; settings: for MIC WC176: WC176, 18 h
Procedure: as §1

[4] = tested on: E. faecium C68 biofilm formation; test: Prevention of E. faecium biofilm formation (XTT, crystal violet); type: cell-based, Enterococcus faecium; settings: XTT, 24 h, BHI + 0.2% glucose
Procedure: We evaluated the ability of the lactoferrin-derived peptides to inhibit biofilm formation following an established protocol with modifications. In short, we prepared exponential cultures of E. faecium C68 (adjusted to OD600 = 0.01) in BHI media (supplemented with 0.2% glucose) from overnight grown cultures. We added 90 µL of the bacterial culture to 10 µL of serially diluted 10× peptide solution in flat-bottomed 96-well polystyrene microtiter plates (Cat No. 3595, Corning, NY, USA) and then incubated the plates at 37 °C for 24 h. We considered media containing bacteria and water as the positive control, while media with water served as the negative control. After incubation, we carefully pipetted out the media and washed the wells with PBS (Gibco, Waltham, MA, USA) to remove loosely attached planktonic cells. We quantified the biomass by staining the biofilms with crystal violet following an established protocol and quantitated the concentration of peptide that inhibits 50% of biofilm formation (MBIC50). Furthermore, we measured the live cell count of the biofilms using XTT [2,3-bis(2-methyloxy-4-nitro-5-sulfophenyl)-2H-tertazolium-5-carboxanilide] dye (ATCC, Manassas, VA, USA). We calculated the percentage of biofilm growth by assuming that there was 100% biofilm growth in wells with bacteria without peptide treatment.

[5] = tested on: E. faecium strain C68 established biofilms; type: cell-based, Enterococcus faecium
Procedure: We prepared exponential cultures of E. faecium strain C68 (adjusted to 1 × 10^8 CFU/mL) in BHI media (supplemented with 0.2% glucose) from overnight grown cultures. We added 100 µL of the bacterial culture to wells of flat-bottomed 96-well polystyrene microtiter plates (Cat No. 3595, Corning, NY, USA). We then incubated the plates at 37 °C for 24 h in static conditions to allow biofilm formation. After incubation, we carefully pipetted out the media and washed the wells with PBS (Gibco, Waltham, MA, USA) to remove loosely attached planktonic cells. We treated the established biofilms in each well with 10 µL of serially diluted 10× peptide solution, followed by the addition of 90 μL of BHI media (supplemented with 0.2% glucose). The plates were incubated for another 24 h at 37 °C before processing for biomass and live-cell contents. We quantitated the concentration of peptide that disrupts 50% of established biofilms (MBEC50).

[6] = tested on: E. faecium E007 established biofilms; type: cell-based, Enterococcus faecium; settings: for concentration killing 50% of live bacteria cells in established biofilms: strain E007, 24 h established biofilms, XTT; for established biomass disrupted: strain E007, at 32 µg/mL
[7] = tested on: drug-resistant E. faecium clinical isolates; type: cell-based, Enterococcus faecium; settings: strains D14, D24, D25, D29, C68 and WC176
Procedure: as §1

Compound	MIC EF C68 (E. faecium strain C68 [1])	MIC Media Only (E. faecium strain C68 [1])	MIC + CaCl2 (2.5 mM) (E. faecium strain C68 [2])	MIC + MgSO4 (1 mM) (E. faecium strain C68 [2])	MIC + NaCl (150 mM) (E. faecium strain C68 [2])	MIC + ZnSO4 (8 µM) (E. faecium strain C68 [2])	MIC S. aureus MW2 (S. aureus MW2)	MIC E. faecalis MMH594 (E. faecalis MMH594)	MIC E. faecalis V583 (E. faecalis V583)	MIC E. faecalis OG1RF (E. faecalis OG1RF)	rT (HPLC retention time) [3]	MIC D14 (E. faecium D14)	MIC D24 (E. faecium D24)	MIC D25 (E. faecium D25)	MIC D29 (E. faecium D29)	MIC E007 (E. faecium E007)	MIC WC176 (E. faecium WC176)	concentration killing 50% of live bacteria cells in established biofilms [6]	established biomass disrupted [6]	further results
LRWLWRRRWLWR-NH2 [Peptide 3L]	16 µg/mL	16 µg/mL	>32 µg/mL	8 µg/mL	16 µg/mL	4 µg/mL	> 32 µg/mL	> 32 µg/mL	> 32 µg/mL	> 32 µg/mL	16.145 min	–	–	–	–	–	–	–	–	–
CC1(C)S[C@@H]2[C@H](NC(=O)[C@H](N)c3ccccc3)C(=O)N2[C@H]1C(=O)O [Ampicillin, reference compound]	–	–	–	–	–	–	–	–	–	–	–	–	–	–	–	–	–	–	–	MIC (E. faecium D14; Enterococcus faecium, D14, read-out: MIC D14): ≥ 32 µg/mL; MIC (E. faecium D24; Enterococcus faecium, D24, read-out: MIC D24): > 32 µg/mL; MIC (E. faecium D25; Enterococcus faecium, D25, read-out: MIC D25): > 32 µg/mL; MIC (E. faecium D29; Enterococcus faecium, D29, read-out: MIC D29): > 32 µg/mL; MIC (E. faecium E007; Enterococcus faecium, E007, tetracycline-resistant strain, read-out: MIC E007): > 32 µg/mL; MIC (E. faecium strain C68 [1]; C68, 18 h, read-out: MIC EF C68): > 32 µg/mL; MIC (E. faecium strain C68 [1]; C68, BHI media only, 37 °C, 18 h, read-out: MIC Media Only): > 32 µg/mL; MIC (E. faecium strain C68 [2]; BHI + 8 µM ZnSO4, read-out: MIC + ZnSO4 (8 µM)): > 32 µg/mL; MIC (E. faecium strain C68 [2]; BHI + 1 mM MgSO4, read-out: MIC + MgSO4 (1 mM)): > 32 µg/mL; MIC (E. faecium strain C68 [2]; BHI + 2.5 mM CaCl2, read-out: MIC + CaCl2 (2.5 mM)): > 32 µg/mL; MIC (E. faecium strain C68 [2]; BHI + 150 mM NaCl, read-out: MIC + NaCl (150 mM)): > 32 µg/mL; MIC (E. faecium WC176; read-out: MIC WC176): > 32 µg/mL
RRWQWRLLLL-NH2 [Peptide 1L]	16 µg/mL	16 µg/mL	32 µg/mL	8 µg/mL	4 µg/mL	4 µg/mL	> 32 µg/mL	> 32 µg/mL	> 32 µg/mL	> 32 µg/mL	18.083 min	–	–	–	–	–	–	–	–	–
RRWLWRRRWLWL-NH2 [Peptide 8L]	4 µg/mL	4 µg/mL	16 µg/mL	4 µg/mL	4 µg/mL	2 µg/mL	> 32 µg/mL	> 32 µg/mL	> 32 µg/mL	> 32 µg/mL	21.235 min	16 µg/mL	8 µg/mL	8 µg/mL	32 µg/mL	4 µg/mL	16 µg/mL	> 32 µg/mL	25–30%	concentration killing 50% of live bacterial cells during biofilm formation stage [4]: 2.8 µg/mL; MBEC50 (established biomass) ([5]; strain C68 established biofilms, 24 h): 30 µg/mL; MIC range against clinical isolates of E. faecium [7]: 8 to 32 µg/mL
RRWLWRRLWLWR-NH2 [Peptide 7L]	4 µg/mL	4 µg/mL	8 µg/mL	4 µg/mL	4 µg/mL	2 µg/mL	> 32 µg/mL	> 32 µg/mL	> 32 µg/mL	> 32 µg/mL	16.290 min	8 µg/mL	4 µg/mL	4 µg/mL	8 µg/mL	4 µg/mL	16 µg/mL	> 32 µg/mL	25–30%	MBEC50 (established biomass) ([5]; 24 h established biofilms, 24 h treatment, crystal violet): failed to achieve an MBEC50
